# Literature values in paper PMC9851200, “Multiparameter phenotypic screening for endogenous TFEB and TFE3 translocation identifies novel chemical series modulating lysosome function” (Autophagy, 2022).
# Tests used:
# Design in all cases: method as in original PKIS2 published data
# [1] = biological target: T1, kinases (KINOMEscan panel) (Homo sapiens, UniProt P33981); conditions: Published KINOMEscan; ref original PKIS2 published data; cited from earlier work
# T1 sequence (P33981 1-857): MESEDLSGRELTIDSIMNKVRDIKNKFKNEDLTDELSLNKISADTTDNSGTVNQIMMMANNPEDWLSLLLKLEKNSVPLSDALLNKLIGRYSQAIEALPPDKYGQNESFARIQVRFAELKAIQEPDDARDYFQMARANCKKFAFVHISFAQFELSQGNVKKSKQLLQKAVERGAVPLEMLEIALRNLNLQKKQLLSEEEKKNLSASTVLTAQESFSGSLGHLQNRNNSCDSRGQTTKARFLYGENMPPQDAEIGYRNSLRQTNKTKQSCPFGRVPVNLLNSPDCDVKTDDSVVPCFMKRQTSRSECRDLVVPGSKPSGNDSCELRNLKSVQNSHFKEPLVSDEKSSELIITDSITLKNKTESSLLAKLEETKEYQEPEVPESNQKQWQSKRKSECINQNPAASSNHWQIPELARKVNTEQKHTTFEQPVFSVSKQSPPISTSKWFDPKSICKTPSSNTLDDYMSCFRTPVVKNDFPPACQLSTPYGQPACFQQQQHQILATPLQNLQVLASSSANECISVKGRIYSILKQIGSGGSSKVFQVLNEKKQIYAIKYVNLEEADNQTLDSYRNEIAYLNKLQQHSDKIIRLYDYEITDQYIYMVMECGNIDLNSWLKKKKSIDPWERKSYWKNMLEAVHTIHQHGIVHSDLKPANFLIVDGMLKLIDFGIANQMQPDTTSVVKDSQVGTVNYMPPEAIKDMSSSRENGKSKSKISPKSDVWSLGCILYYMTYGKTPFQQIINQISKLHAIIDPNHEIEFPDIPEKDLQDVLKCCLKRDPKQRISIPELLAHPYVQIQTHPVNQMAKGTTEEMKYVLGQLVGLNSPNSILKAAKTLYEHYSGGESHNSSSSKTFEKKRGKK
# [2] = biological target: kinases (KINOMEscan panel) (Homo sapiens, UniProt Q86Y07); conditions: Published KINOMEscan; ref original PKIS2 published data; cited from earlier work
# [3] = biological target: T2, kinases (KINOMEscan panel) (Homo sapiens, UniProt Q13873); conditions: kinase BMPR2; Published KINOMEscan; ref original PKIS2 published data; cited from earlier work
# T2 sequence (Q13873 27-1038): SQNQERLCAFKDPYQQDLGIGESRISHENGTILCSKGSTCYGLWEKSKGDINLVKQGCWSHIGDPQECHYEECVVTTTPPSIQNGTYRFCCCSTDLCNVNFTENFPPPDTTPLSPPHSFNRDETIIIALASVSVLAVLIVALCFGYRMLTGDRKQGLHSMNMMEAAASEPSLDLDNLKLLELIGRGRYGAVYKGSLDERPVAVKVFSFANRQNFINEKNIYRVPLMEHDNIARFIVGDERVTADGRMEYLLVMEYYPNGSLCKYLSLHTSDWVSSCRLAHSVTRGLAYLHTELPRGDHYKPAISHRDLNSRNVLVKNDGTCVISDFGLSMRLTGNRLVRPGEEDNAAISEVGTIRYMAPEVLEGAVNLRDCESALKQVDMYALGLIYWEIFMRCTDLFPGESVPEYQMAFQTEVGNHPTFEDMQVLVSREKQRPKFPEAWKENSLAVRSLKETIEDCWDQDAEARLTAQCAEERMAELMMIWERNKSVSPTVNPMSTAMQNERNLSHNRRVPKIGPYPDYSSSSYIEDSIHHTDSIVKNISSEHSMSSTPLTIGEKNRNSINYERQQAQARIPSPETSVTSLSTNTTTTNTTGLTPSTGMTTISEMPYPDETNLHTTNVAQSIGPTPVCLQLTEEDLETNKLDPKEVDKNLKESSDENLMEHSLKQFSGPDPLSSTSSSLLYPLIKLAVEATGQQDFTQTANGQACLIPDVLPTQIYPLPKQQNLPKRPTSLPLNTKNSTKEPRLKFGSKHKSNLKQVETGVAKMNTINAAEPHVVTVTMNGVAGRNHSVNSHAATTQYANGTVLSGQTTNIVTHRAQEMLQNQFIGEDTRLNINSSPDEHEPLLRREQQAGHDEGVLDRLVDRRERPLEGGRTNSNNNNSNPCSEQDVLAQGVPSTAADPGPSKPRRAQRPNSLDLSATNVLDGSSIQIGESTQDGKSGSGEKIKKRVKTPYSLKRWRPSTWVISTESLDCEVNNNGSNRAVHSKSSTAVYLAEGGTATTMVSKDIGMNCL
# [4] = biological target: T3, kinases (KINOMEscan panel) (Homo sapiens, UniProt Q06418); conditions: Published KINOMEscan; ref original PKIS2 published data; cited from earlier work
# T3 sequence (Q06418 41-890): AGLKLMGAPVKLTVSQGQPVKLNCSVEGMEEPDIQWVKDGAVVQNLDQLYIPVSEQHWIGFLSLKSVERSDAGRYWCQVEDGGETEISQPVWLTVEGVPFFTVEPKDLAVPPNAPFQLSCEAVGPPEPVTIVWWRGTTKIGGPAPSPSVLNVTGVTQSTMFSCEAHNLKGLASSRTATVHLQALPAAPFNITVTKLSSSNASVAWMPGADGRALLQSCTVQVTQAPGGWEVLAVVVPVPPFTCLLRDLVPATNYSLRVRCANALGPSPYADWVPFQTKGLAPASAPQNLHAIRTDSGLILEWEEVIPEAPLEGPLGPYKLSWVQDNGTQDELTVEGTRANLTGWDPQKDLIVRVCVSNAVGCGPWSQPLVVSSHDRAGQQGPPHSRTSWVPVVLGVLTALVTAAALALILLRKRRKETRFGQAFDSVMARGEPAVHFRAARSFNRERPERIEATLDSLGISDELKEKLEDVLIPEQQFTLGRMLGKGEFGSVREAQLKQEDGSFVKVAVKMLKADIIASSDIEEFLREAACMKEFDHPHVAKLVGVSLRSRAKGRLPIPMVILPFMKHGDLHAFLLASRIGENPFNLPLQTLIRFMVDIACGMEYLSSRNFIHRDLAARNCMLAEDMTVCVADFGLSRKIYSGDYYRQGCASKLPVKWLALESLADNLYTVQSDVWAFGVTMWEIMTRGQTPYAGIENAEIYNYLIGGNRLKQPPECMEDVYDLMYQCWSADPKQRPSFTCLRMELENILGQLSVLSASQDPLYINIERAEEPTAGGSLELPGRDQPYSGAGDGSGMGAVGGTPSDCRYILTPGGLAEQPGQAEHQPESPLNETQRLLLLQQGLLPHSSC
# [5] = biological target: kinases (KINOMEscan panel) (Homo sapiens, UniProt Q9NQU5); conditions: PAK6; Published KINOMEscan; ref original PKIS2 published data; cited from earlier work
# Chain of kinases (KINOMEscan panel) (Homo sapiens, UniProt Q9NQU5) (Q9NQU5 whole entry): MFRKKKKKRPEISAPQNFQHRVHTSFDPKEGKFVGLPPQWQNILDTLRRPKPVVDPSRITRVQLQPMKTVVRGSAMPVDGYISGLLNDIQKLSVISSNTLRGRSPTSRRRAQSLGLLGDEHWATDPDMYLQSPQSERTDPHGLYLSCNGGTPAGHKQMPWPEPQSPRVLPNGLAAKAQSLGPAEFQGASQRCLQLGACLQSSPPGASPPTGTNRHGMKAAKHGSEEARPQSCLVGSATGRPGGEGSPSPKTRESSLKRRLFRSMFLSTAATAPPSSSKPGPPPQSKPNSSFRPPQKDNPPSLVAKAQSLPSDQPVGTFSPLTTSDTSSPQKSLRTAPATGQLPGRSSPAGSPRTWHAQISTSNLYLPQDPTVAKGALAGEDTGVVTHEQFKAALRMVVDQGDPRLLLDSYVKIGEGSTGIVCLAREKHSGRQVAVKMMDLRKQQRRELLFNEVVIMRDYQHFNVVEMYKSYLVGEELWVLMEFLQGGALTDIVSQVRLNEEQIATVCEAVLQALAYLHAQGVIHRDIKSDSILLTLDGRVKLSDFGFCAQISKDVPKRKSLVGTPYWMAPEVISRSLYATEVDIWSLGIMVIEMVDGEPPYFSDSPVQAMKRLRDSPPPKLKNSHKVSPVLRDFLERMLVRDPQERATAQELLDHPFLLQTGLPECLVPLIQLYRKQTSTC
# Chain of kinases (KINOMEscan panel) (Homo sapiens, UniProt Q86Y07) (Q86Y07 whole entry): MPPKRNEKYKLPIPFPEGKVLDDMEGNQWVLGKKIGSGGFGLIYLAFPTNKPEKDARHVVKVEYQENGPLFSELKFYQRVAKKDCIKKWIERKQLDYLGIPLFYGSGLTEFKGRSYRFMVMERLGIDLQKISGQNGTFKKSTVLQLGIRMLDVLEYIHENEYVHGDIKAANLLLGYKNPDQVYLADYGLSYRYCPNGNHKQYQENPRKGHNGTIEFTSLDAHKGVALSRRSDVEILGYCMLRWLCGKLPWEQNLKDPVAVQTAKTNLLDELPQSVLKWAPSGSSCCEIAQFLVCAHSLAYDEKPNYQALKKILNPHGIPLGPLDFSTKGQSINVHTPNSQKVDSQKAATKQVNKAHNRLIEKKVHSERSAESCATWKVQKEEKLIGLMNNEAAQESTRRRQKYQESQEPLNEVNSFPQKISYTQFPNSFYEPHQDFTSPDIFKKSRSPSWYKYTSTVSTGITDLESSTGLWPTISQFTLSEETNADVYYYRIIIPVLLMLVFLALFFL
structure (smiles),measurement,setting,value
Cc1cccc(-c2nc(Nc3ccncc3)c3ccccc3n2)n1 [NK215],KINOMEscan TTK,[1],10
same,KINOMEscan VRK2,[2],0
same,KINOMEscan BMPR2,[3],0
same,KINOMEscan TYRO3,[4],0
same,KINOMEscan PAK6,[5],3
